The target in assay [1] is c-Cbl (Homo sapiens (Human), UniProt P22681). The experiment in a line: C-Cbl LCK Ub TR-FRET assay (c-cbl Lck HTRF). Conditions: for (fold-selectivity): C-cbl Lck HTRF IC50 relative to Cbl-b Lck HTRF IC50. It counts as biochemical. In short, it runs like this: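 After the ubiquitination reaction, detection mixture was added and plates incubated 20 min at room temperature before reading. IC50 values were calculated with wells lacking LCK as the low control and DMSO as the high control.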
On the technique in general: Time-resolved FRET reads energy transfer from a long-lived donor to a nearby acceptor.

For assay [2], the target named is Cbl-b (Homo sapiens (Human), UniProt Q13191). The experiment in a line: Cbl-b LCK Ub TR-FRET assay (Cbl-b Lck HTRF). The assay is classed as biochemical. In short, it runs like this: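 TR-FRET (340 nm excitation, 615/665 nm emission) read after adding HA-ubiquitin–UBE2D2 thioester, anti-HA-D2 and streptavidin-Eu. Beforehand, compounds incubated 60 min with biotinylated Cbl-b, then 90 min with His-LCK and ATP (1 mM in 2× mix); IC50 from 10 concentrations, DMSO high and no-LCK low controls.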

These results are taken from patent US20250230147A1, “LACTAMS AS CBL-B INHIBITORS” (Genentech, Inc., priority 2021, published 2025).

Structures can show the parent of a compound that is named as a salt. Where two headings read alike, the source gives them in different places.

In general, IC50 refers to the midpoint of a concentration-inhibition curve. A lower IC50 goes with greater potency in that assay.

c-Cbl, sequence (P22681 47-435): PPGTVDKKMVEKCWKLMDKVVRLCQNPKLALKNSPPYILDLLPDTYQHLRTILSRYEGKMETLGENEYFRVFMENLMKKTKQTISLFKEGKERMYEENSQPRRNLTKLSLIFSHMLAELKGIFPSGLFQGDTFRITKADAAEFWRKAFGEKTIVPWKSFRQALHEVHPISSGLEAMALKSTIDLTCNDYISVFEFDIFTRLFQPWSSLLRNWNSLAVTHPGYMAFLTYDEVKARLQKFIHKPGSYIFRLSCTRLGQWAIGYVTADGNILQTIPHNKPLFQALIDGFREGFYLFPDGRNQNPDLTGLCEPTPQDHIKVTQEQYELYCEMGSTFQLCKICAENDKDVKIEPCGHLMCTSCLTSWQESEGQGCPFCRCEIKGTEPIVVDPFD
Cbl-b, sequence (Q13191 40-426): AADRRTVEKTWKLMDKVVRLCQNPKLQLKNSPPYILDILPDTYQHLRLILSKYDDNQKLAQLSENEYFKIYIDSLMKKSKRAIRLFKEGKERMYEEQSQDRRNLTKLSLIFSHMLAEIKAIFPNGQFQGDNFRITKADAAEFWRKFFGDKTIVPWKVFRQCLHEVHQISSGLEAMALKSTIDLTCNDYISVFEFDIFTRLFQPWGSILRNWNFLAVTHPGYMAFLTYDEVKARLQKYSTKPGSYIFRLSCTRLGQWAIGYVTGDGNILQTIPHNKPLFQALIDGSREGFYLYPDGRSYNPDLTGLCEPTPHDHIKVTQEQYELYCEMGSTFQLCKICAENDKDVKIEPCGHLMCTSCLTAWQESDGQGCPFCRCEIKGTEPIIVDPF

As for `CC(C)[C@H]1CN(S(C)(=O)=O)CCN1Cc1cc2c(c(C(F)(F)F)c1)CN(c1cccc(C3([C@H](F)c4nncn4C)COC3)c1)C2=O` [Compound 196, 2-(3-(3-((S)-fluoro(4-methyl-4H-1,2,4-triazol-3-yl)methyl)oxetan-3-yl)phenyl)-6-(((S)-2-isopropyl-4-(methylsulfonyl)piperazin-1-yl)methyl)-4-(trifluoromethyl)isoindolin-1-one], the IC50 in assay [1] was determined as 660 nM; in assay [2], 240 nM. Also, the “(fold-selectivity)” value in assay [1] came to 2.8x.
On the same counts, the results for `Cn1cnnc1[C@H](F)C1(c2cccc(N3Cc4c(cc(CN)cc4C(F)(F)F)C3=O)c2)CCC1` [Compound 386, (R)-6-(aminomethyl)-2-(3-(1-(fluoro(4-methyl-4H-1,2,4-triazol-3-yl)methyl)cyclobutyl)phenyl)-4-(trifluoromethyl)isoindolin-1-one] are 31 nM, 32 nM and “(0.98x)”.
`C[C@@H](c1cc2c(c(C(F)(F)F)c1)CN(c1cccc(C3([C@H](F)c4nncn4C)COC3)c1)C2=O)N1CC(C)(F)C1` [Compound 110, 2-(3-(3-((S)-fluoro(4-methyl-4H-1,2,4-triazol-3-yl)methyl)oxetan-3-yl)phenyl)-6-((S)-1-(3-fluoro-3-methylazetidin-1-yl)ethyl)-4-(trifluoromethyl)isoindolin-1-one]: the values for the half-inhibitory concentration (IC50) in assay [1] and in assay [2] were 650 nM and 320 nM, respectively. For the same compound, the “(fold-selectivity)” value in assay [1] was determined as 2.0x.
On the same counts, the results for `Cn1cnnc1CC1(c2cccc(N3Cc4c(cc(CNC5(C)CCC5)cc4C(F)(F)F)C3=O)c2)CS(=O)(=O)C1` [Compound 242, 2-(3-(3-((4-methyl-4H-1,2,4-triazol-3-yl)methyl)-1,1-dioxido-thietan-3-yl)phenyl)-6-(((1-methylcyclobutyl)amino)methyl)-4-(trifluoromethyl)isoindolin-1-one] are 41 nM, 31 nM and “(1.3x)”.
On the same counts, the results for `Cl.Cn1cnnc1CC1(c2cc(NCc3ccncc3)nc(N3Cc4c(cc(CNC5(C)CCC5)cc4C(F)(F)F)C3=O)c2)CCC1` [Compound 380, 2-(4-(1-((4-methyl-4H-1,2,4-triazol-3-yl)methyl)cyclobutyl)-6-((pyridin-4-ylmethyl)amino)pyridin-2-yl)-6-(((1-methylcyclobutyl)amino)methyl)-4-(trifluoromethyl)isoindolin-1-one hydrochloride] are 99 nM, 89 nM and “(101x)”.
Regarding `CCCNCc1cc2c(c(C(F)(F)F)c1)CN(c1cccc(C3([C@@H](F)c4nncn4C)COC3)c1)C2=O` [Compound 228, (R)-2-(3-(3-(fluoro(4-methyl-4H-1,2,4-triazol-3-yl)methyl)oxetan-3-yl)phenyl)-6-((propylamino)methyl)-4-(trifluoromethyl)isoindolin-1-one formate], the IC50 in assay [1] was 96 nM; in assay [2] it was 12 nM.
With `Cc1cn[nH]c1C(F)C1(c2cccc(N3Cc4c(cc(CN5CCN(C)C[C@@H]5C(C)C)cc4C(F)(F)F)C3=O)c2)COC1` (stereo partly drawn) [Compound 237, 2-(3-(3-(fluoro(4-methyl-1H-pyrazol-5-yl)methyl)oxetan-3-yl)-phenyl)-6-(((S)-2-isopropyl-4-methylpiperazin-1-yl)methyl)-4-(trifluoromethyl)isoindolin-1-one], in assay [1], half-maximal inhibition (IC50) required 180 nM and the “(fold-selectivity)” value is recorded as “(1.8x)”. The compound further registered an IC50 in assay [2] of 100 nM.
Regarding `Cn1cnnc1[C@H](F)C1(c2cccc(N3Cc4c(cc(CC5CNC5)cc4C(F)(F)F)C3=O)c2)COC1` [Compound 57, (R)-6-(azetidin-3-ylmethyl)-2-(3-(3-(fluoro(4-methyl-4H-1,2,4-triazol-3-yl)methyl)oxetan-3-yl)phenyl)-4-(trifluoromethyl)isoindolin-1-one], in assay [1], the IC50 is 67 nM and the “(fold-selectivity)” value is listed as 1.4x. Moreover, 49 nM corresponded to half-maximal inhibition in assay [2] (IC50).
Turning to `Cn1cnnc1CC1(c2cccc(N3Cc4c(cc(CN5Cc6c[nH]nc6C5)cc4C(F)(F)F)C3=O)c2)CC(F)(F)C1` [Compound 105, 2-(3-(3,3-difluoro-1-((4-methyl-4H-1,2,4-triazol-3-yl)methyl)cyclobutyl)phenyl)-6-((2,6-dihydropyrrolo[3,4-c]pyrazol-5(4H)-yl)methyl)-4-(trifluoromethyl)isoindolin-1-one], in assay [1], the IC50 turned out to be 25 nM and the “(fold-selectivity)” value came out at 0.93x. Besides, the IC50 in assay [2] was 26 nM.
As to `Cn1cnnc1CC1(c2cc(-c3ccccc3)nc(N3Cc4c(cc(CNC5(C)CCC5)cc4C(F)(F)F)C3=O)c2)CCC1` [Compound 324, 2-(4-(1-((4-methyl-4H-1,2,4-triazol-3-yl)methyl)cyclobutyl)-6-phenylpyridin-2-yl)-6-(((1-methylcyclobutyl)amino)methyl)-4-(trifluoromethyl)isoindolin-1-one], the results for the 50% inhibitory concentration (IC50) in assay [1] and in assay [2] were 7.6 nM and 12 nM, respectively. Moreover, in assay [1], the “(fold-selectivity)” value is recorded as “(0.66x)”.
Regarding `Cn1cnnc1[C@@H](F)C1(c2cccc(N3Cc4c(cc(CN5CC6(C5)CS(=O)(=O)C6)cc4C(F)(F)F)C3=O)c2)COC1` [Compound 182, (S)-6-((2,2-dioxido-2-thia-6-azaspiro[3.3]heptan-6-yl)methyl)-2-(3-(3-(fluoro(4-methyl-4H-1,2,4-triazol-3-yl)methyl)oxetan-3-yl)phenyl)-4-(trifluoromethyl)isoindolin-1-one], the IC50 in assay [1] stood at 430 nM; in assay [2], 170 nM. The “(fold-selectivity)” value in assay [1] is 2.6x.
Consider `CN1CC2CC(C1)N2Cc1cc2c(c(C(F)(F)F)c1)CN(c1cccc(C3(Cc4nncn4C)CC(F)(F)C3)c1)C2=O` [Compound 413, 2-(3-(3,3-difluoro-1-((4-methyl-4H-1,2,4-triazol-3-yl)methyl)cyclobutyl)phenyl)-6-((3-methyl-3,6-diazabicyclo[3.1.1]heptan-6-yl)methyl)-4-(trifluoromethyl)isoindolin-1-one formate], for which the IC50 in assay [1] (formate) stood at 50 nM; in assay [2] (formate) it was 56 nM.
As for `Cn1cnnc1CC1(c2cccc(N3Cc4c(cc(CN5CC[C@H](CCl)C5)cc4C(F)(F)F)C3=O)c2)COC1` [Compound 102, (S)-6-((3-(chloromethyl)pyrrolidin-1-yl)methyl)-2-(3-(3-((4-methyl-4H-1,2,4-triazol-3-yl)methyl)oxetan-3-yl)phenyl)-4-(trifluoromethyl)isoindolin-1-one], the IC50 amounted to 25 nM in assay [1] and 18 nM in assay [2]. Besides, the “(fold-selectivity)” value in assay [1] is 1.4x.
Consider `CC(C)Cc1cc(C2(Cc3nncn3C)CCC2)cc(N2Cc3c(cc(CNC4(C)CCC4)cc3C(F)(F)F)C2=O)n1` [Compound 342, 2-(6-isobutyl-4-(1-((4-methyl-4H-1,2,4-triazol-3-yl)methyl)cyclobutyl)pyridin-2-yl)-6-(((1-methylcyclobutyl)amino)methyl)-4-(trifluoromethyl)isoindolin-1-one formate], for which the IC50 in assay [1] is 7.9 nM; in assay [2], 11 nM.
In the case of `CCNc1cc(N2Cc3c(cc(CNC4(C)CCC4)cc3C(F)(F)F)C2=O)cc(C2(Cc3nncn3C)CC(F)(F)C2)c1` [Compound 466, 2-(3-(3,3-difluoro-1-((4-methyl-4H-1,2,4-triazol-3-yl)methyl)cyclobutyl)-5-(ethylamino)phenyl)-6-(((1-methylcyclobutyl)amino)methyl)-4-(trifluoromethyl)isoindolin-1-one], the IC50 in assay [1] stood at 6.1 nM; in assay [2], 6.4 nM. Further, in assay [1], the “(fold-selectivity)” value is “(0.96x)”.
